Paper PMC6199744, “Development of Chemical Proteomics for the Folateome and Analysis of the Kinetoplastid Folateome” (ACS Infectious Diseases, 2018)
Where two headings read alike, the source gives them in different places.

What was measured:
Type in all cases: binding
[1] = target: T1, HeLa cell extract proteins (Homo sapiens, UniProt O00483); details: captured protein NDUFA4; HeLa
T1 construct: endogenous in cells; host or cells: HeLa cell extract

[2] = target: T2, HeLa cell extract proteins (Homo sapiens, UniProt O95433); details: protein AHSA1; HeLa
T2 construct: endogenous in cells; host or cells: HeLa cell extract
T2 sequence (O95433 whole entry): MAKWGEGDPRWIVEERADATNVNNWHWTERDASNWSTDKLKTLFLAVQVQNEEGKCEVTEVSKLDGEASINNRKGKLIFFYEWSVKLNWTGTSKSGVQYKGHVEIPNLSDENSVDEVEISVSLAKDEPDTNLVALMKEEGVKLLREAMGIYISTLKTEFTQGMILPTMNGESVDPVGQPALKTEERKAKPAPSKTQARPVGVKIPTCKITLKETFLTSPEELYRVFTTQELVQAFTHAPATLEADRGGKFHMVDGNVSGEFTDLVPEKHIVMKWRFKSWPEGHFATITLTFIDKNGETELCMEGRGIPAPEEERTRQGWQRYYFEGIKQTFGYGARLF

[3] = target: T3, HeLa cell extract proteins (Homo sapiens, UniProt P09669); details: captured protein COX6C; HeLa
T3 construct: endogenous in cells; host or cells: HeLa cell extract
T3 sequence (P09669 whole entry): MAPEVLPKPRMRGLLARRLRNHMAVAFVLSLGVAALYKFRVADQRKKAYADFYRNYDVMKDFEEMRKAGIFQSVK

[4] = target: T4, HeLa cell extract proteins (Homo sapiens, UniProt P55884); details: protein EIF3B; HeLa
T4 construct: endogenous in cells; host or cells: HeLa cell extract
T4 sequence (P55884 whole entry): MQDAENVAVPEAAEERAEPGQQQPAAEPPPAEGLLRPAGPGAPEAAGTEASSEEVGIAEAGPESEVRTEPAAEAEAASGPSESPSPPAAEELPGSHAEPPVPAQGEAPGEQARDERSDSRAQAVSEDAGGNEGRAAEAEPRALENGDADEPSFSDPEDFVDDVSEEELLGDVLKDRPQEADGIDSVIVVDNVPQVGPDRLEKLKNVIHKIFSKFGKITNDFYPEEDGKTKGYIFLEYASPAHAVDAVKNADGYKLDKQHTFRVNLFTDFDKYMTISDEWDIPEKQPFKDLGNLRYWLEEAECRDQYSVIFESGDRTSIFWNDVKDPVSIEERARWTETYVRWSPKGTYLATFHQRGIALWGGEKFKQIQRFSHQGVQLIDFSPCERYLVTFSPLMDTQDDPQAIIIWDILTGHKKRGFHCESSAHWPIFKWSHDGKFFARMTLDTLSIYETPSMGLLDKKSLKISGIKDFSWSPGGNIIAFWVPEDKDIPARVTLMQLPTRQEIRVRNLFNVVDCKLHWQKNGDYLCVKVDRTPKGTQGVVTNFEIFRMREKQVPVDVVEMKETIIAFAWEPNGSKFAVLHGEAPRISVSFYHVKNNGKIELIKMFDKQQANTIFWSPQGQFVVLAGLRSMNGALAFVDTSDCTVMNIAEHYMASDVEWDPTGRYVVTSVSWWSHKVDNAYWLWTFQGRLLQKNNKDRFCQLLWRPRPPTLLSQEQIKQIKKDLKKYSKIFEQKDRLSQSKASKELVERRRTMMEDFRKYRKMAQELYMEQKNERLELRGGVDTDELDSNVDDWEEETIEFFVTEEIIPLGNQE

[5] = target: T5, HeLa cell extract proteins (Homo sapiens, UniProt P82933); details: protein MRPS9; HeLa
T5 construct: endogenous in cells; host or cells: HeLa cell extract

[6] = target: T6, HeLa cell extract proteins (Homo sapiens, UniProt Q8TEQ6); details: protein GEMIN5; HeLa
T6 construct: endogenous in cells; host or cells: HeLa cell extract

[7] = target: T7, HeLa cell extract proteins (Homo sapiens, UniProt Q9BUF5); details: HeLa; protein TUBB6
T7 construct: endogenous in cells; host or cells: HeLa cell extract
T7 sequence (Q9BUF5 whole entry): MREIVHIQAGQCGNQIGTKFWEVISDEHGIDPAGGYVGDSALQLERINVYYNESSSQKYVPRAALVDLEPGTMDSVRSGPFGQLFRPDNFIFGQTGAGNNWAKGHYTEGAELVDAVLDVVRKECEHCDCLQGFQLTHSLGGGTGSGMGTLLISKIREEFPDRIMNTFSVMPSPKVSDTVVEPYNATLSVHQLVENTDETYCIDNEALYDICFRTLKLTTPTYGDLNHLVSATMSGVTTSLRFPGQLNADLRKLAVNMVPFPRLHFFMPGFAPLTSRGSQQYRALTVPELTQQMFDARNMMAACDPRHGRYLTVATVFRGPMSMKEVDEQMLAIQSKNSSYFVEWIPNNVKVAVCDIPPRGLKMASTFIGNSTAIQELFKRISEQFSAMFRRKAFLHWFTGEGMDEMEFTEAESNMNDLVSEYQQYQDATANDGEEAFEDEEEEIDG

[8] = target: T8, HeLa cell extract proteins (Homo sapiens, UniProt Q9UGJ1); details: HeLa; protein TUBGCP4
T8 construct: endogenous in cells; host or cells: HeLa cell extract
T8 sequence (Q9UGJ1 whole entry): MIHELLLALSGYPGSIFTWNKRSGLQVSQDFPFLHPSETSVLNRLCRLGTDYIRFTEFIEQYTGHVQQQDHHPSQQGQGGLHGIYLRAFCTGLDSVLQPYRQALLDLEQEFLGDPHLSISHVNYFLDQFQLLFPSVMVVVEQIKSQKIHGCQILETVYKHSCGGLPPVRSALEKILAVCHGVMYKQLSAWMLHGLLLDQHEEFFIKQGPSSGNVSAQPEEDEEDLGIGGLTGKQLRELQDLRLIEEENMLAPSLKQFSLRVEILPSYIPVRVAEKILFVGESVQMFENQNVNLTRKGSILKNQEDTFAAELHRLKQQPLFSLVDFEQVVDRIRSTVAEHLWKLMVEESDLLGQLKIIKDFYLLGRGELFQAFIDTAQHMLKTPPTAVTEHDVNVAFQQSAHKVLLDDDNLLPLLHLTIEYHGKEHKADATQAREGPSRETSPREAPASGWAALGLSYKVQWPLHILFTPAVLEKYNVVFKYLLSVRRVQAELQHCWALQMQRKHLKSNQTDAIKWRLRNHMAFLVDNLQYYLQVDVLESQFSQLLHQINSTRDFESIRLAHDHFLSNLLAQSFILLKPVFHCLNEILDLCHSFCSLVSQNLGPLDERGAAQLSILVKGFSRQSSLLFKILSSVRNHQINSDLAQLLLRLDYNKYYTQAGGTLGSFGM

[9] = target: T9, HeLa cell extract proteins (Homo sapiens, UniProt O75533)
T9 construct: endogenous in cells; host or cells: HeLa cell extract
T9 sequence (O75533 whole entry): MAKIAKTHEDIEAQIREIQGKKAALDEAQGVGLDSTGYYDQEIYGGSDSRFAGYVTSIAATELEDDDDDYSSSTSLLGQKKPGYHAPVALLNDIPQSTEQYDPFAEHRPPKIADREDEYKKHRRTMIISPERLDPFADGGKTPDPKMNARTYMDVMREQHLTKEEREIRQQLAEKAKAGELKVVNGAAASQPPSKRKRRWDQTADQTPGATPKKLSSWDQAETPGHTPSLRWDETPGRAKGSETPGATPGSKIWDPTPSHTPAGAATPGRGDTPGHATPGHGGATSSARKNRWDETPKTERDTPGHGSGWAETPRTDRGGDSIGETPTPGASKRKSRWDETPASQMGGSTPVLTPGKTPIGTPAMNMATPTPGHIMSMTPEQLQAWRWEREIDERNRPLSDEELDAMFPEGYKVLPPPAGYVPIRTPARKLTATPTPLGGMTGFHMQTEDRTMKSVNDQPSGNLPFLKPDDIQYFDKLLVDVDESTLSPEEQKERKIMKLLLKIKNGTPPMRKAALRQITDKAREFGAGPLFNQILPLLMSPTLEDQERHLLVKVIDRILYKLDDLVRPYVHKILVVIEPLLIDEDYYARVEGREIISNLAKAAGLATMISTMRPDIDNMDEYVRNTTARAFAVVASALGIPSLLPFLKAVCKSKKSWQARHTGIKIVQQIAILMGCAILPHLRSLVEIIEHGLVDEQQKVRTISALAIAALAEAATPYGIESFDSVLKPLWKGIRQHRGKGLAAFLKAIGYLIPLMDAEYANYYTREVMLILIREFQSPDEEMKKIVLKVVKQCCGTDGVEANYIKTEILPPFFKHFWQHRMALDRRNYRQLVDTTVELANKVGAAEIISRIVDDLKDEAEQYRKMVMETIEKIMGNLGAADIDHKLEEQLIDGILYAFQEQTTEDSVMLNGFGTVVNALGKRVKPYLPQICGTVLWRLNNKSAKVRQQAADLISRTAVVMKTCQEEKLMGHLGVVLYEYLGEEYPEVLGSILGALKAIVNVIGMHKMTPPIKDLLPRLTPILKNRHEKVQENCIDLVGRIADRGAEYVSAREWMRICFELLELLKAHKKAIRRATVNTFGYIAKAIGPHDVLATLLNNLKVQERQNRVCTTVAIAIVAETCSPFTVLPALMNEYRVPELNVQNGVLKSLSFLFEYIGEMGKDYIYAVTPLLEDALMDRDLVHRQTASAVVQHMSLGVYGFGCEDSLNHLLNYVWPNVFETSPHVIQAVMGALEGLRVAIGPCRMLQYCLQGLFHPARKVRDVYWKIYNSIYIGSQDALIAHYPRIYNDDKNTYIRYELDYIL

[10] = target: T10, HeLa cell extract proteins (Homo sapiens, UniProt P31939)
T10 construct: endogenous in cells; host or cells: HeLa cell extract
T10 sequence (P31939 whole entry): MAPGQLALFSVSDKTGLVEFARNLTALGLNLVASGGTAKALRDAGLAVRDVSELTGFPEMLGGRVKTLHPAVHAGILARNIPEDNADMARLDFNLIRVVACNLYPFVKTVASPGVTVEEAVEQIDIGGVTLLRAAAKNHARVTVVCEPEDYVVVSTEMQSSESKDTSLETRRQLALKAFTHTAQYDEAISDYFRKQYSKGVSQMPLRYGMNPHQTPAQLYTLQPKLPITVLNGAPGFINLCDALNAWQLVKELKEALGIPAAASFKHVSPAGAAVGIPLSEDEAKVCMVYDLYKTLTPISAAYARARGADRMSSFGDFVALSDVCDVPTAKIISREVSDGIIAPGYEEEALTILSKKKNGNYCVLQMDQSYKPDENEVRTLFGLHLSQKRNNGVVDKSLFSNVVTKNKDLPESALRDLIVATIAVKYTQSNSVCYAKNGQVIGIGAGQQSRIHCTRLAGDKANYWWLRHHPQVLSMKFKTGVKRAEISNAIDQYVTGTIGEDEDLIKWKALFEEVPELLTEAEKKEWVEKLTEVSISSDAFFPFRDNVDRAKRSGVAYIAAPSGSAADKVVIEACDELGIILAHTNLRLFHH

[11] = target: T11, HeLa cell extract proteins (Homo sapiens, UniProt P52292)
T11 construct: endogenous in cells; host or cells: HeLa cell extract

[12] = target: T12, HeLa cell extract proteins (Homo sapiens, UniProt P63241)
T12 construct: endogenous in cells; host or cells: HeLa cell extract
T12 sequence (P63241 whole entry): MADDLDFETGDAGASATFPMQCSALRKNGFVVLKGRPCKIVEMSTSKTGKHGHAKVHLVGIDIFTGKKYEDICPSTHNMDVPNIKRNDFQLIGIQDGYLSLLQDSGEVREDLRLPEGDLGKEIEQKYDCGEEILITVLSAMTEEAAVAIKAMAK

[13] = target: T13, HeLa cell extract proteins (Homo sapiens, UniProt Q92499)
T13 construct: endogenous in cells; host or cells: HeLa cell extract
T13 sequence (Q92499 1-740): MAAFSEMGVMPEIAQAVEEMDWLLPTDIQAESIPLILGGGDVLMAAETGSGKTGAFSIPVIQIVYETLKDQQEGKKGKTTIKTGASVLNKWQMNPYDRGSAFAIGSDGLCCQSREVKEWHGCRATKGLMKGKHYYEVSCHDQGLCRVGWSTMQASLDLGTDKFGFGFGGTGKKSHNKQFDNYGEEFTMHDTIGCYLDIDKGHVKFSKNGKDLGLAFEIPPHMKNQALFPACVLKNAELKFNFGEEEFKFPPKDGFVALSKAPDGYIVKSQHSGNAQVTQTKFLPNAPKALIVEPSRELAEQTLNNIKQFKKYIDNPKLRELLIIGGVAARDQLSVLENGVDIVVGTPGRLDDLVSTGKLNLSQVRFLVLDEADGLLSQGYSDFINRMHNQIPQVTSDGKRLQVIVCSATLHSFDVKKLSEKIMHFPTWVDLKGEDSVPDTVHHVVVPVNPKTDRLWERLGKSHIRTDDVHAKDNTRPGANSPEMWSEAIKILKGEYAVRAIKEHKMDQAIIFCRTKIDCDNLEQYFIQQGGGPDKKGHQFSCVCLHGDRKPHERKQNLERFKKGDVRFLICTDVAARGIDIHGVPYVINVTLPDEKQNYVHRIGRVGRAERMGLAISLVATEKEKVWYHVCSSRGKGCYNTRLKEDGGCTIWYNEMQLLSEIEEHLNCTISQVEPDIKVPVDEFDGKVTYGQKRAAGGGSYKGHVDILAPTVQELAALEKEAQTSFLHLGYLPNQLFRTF

[14] = target: T14, HeLa cell extract proteins (Homo sapiens, UniProt Q9UPN7)
T14 construct: endogenous in cells; host or cells: HeLa cell extract
T14 sequence (Q9UPN7 1-881): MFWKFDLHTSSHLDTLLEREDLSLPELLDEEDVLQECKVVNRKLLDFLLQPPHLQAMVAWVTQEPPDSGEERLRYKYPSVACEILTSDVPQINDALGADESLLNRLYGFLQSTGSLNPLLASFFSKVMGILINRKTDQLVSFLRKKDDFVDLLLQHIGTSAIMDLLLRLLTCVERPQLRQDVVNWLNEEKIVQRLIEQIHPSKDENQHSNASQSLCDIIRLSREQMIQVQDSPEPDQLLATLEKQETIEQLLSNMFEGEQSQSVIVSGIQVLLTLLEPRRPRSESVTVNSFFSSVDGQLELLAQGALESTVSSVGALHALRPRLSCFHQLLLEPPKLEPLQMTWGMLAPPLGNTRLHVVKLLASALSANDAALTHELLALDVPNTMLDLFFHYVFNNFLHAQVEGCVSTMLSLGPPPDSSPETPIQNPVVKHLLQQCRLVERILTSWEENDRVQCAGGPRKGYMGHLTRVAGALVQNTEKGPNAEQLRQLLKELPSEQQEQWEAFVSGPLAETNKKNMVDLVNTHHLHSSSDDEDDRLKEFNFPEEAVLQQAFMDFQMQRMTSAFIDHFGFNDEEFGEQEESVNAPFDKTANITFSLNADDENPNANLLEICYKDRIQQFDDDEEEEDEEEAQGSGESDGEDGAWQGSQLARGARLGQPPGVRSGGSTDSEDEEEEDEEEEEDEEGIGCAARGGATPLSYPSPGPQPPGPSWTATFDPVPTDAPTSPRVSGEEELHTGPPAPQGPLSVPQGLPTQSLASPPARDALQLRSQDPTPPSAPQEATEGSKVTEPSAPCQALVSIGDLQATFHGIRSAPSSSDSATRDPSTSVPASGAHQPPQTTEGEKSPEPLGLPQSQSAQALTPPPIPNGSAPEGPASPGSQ

[15] = HeLa, protein SAPS1 (SAPS1 PROTEIN)

T1 sequence (O00483 whole entry): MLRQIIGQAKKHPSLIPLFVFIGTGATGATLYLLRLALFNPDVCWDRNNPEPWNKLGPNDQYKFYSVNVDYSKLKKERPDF

| SMILES | fold changes relative to vehicle control [1] | fold changes relative to vehicle control [2] | fold changes relative to vehicle control [3] | fold changes relative to vehicle control [4] | fold changes relative to vehicle control [5] | fold changes relative to vehicle control [6] | fold changes relative to vehicle control [7] | fold changes relative to vehicle control [8] | fold changes relative to vehicle control ([9]; HeLa, protein SF3B1) | fold changes relative to vehicle control ([10]; HeLa, protein ATIC) | fold changes relative to vehicle control ([11]; HeLa, captured protein KPNA2) | fold changes relative to vehicle control ([12]; HeLa, captured protein EIF5A) | fold changes relative to vehicle control ([13]; HeLa, captured protein DDX1) | fold changes relative to vehicle control [14, 15] | also measured |
| --- | --- | --- | --- | --- | --- | --- | --- | --- | --- | --- | --- | --- | --- | --- | --- |
| Nc1nc2cccc(-c3ccccc3)c2n1Cc1ccc(Cl)c(Cl)c1 [compound 3] | 0.82 | 1.24 | 1.07 | 1.2 | 0.92 | 1.61 | 1.19 | 1.02 | – | – | – | – | – | – | – |
| CCCCCCOc1ccc(Cc2cnc(N)nc2N)cc1 [compound 1] | 0.8 | 1.17 | 0.88 | 0.99 | 1.24 | 0.99 | 0.7 | 0.85 | – | – | – | – | – | – | – |
| NCCCNc1ccc(C(=O)NC(CCC(=O)O)C(=O)O)cc1 (stereo not drawn) [compound 7] | – | – | – | – | – | – | – | – | 1.07 | 0.99 | 0.99 | 1.02 | 1.11 | 1.32 | – |
| CCCCCCOc1cccc(Cc2cnc(N)nc2N)c1 [compound 2] | 1.17 | 1.63 | 0.94 | 1.68 | 1.3 | 1.12 | 0.91 | 1.07 | – | – | – | – | – | – | – |
| NCCOCCOCC(=O)Nc1nc2ncc(CNc3ccc(C(=O)NC(CCC(=O)O)C(=O)O)cc3)nc2c(=O)[nH]1 (stereo not drawn) [compound 6] | – | – | – | – | – | – | – | – | 1.16 | 1.13 | 1.13 | 1.61 | 1.12 | 1.29 | – |
| Nc1nc2[nH]cc(CCc3ccc(C(=O)N[C@@H](CCC(=O)O)C(=O)O)cc3)c2c(=O)[nH]1 [PTX, pemetrexed] | – | – | – | – | – | – | – | – | – | – | – | – | – | – | fold changes relative to vehicle control [9]: 1.1; fold changes relative to vehicle control [10]: 0.91; fold changes relative to vehicle control [11]: 1; fold changes relative to vehicle control [12]: 1.32; fold changes relative to vehicle control [13]: 1.14; fold changes relative to vehicle control [14]: 1.49 |
| Nc1nc2c(c(=O)[nH]1)N(C=O)C(CNc1ccc(C(=O)N[C@@H](CCC(=O)O)C(=O)O)cc1)CN2 (stereo partly drawn) [LEU, leucovorin] | – | – | – | – | – | – | – | – | 1.02 | 1.06 | 1.01 | 1.12 | 1.15 | 1.01 | – |
